Test results as given in PMC5608758, “A brain-targeting lipidated peptide for neutralizing RNA-mediated toxicity in Polyglutamine Diseases” (Scientific Reports, 2017).
“Also recorded” adds a separate entry of the source. Like-named read-outs stand apart in the source and are kept apart here. Residues, ends and D or L forms follow the SMILES beside them. *: point of attachment. Palmitoyl = CCCCCCCCCCCCCCCC(=O)*

Key:
[1] = tested on: DsRed CAG0 Drosophila; assay: Pseudopupil assay in control flies (toxicity); format: in vivo; settings: P3V8 at up to 50 µM
Method: Flies were raised at 21.5 °C on cornmeal medium supplemented with dry yeast. Fly lines bearing UAS-DsRed CAG0 and UAS-DsRed CAG100 were kind gifts of Professor Nancy Bonini (University of Pennsylvania, USA). The gmr-GAL4 fly line was obtained from Bloomington Drosophila Stock Center. […] Pseudopupil assay was performed on 12 day-old adult flies as mentioned previously. Images were captured by SPOT Insight CCD camera controlled by the SPOT Advanced software (Diagnostic instruments Inc.). Image processing was performed using the Adobe Photoshop CS software (Adobe). Each experiment was repeated at least 3 times (n = 10 fly heads), and consistent results were obtained. For viability test of wild-type flies from egg to adult stage, eggs born within 5 hr were collected and cultured in fly food containing 10 or 50 μM of respective peptides at 21.5°C. Viability from egg-to-adult was calculated as the number of adult flies collected divided by the number of eggs examined. Each experiment was repeated for three times (at least 130 eggs were examined in each group). Two batches of independently synthesized peptides were used in the experiments.

[2] = tested on: HEK293 cells; assay: Cellular uptake studies in HEK293 cells; format: in vitro ADME; settings: 3 hr, 37 °C, cell lysate, LC/MS, normalized to total protein; for cellular uptake level: 100 nM peptide
Method: HEK293 cells were seeded on a 6-well plate at a density of 6 × 10^5 and cultured overnight at 37 °C with 5% CO2 in DMEM supplemented with 10% FBS and 1% penicillin-streptomycin. Cells were then treated with 100, 500 or 1000 nM of respective peptide at 37 °C for 3 hr. After treatment, the cells were washed with ice-cold PBS and then lysed by 2% SDS solution. Aliquot (100 µl) of the cell lysate was added with 200 µl acetonitrile and centrifuged at 13000 rcf for 10 min to precipitate the proteins. The collected supernatant was subjected to LC/MS analysis. The protein concentration of the cell lysate was measured using a bicinchoninic acid protein assay kit following Sigma’s protocol.

[3] = In vitro stability in rat plasma; format: in vitro ADME; settings: for remaining at 3 h, 2000 ng/mL: rat; for remaining at 1 h, 500 ng/mL / remaining at 3 h, 1000 ng/mL: LLOQ 12.5 ng/mL P3V8
Method: Sprague-Dawley (SD) rats (male, 180-200 g) were supplied by the Laboratory Animal Services Centre at The Chinese University of Hong Kong. All animal studies were conducted under the approval of the Animal Ethics Committee of The Chinese University of Hong Kong, and were performed in accordance with relevant guidelines and regulations. Blank rat brain homogenate was prepared by ultrasonic probe homogenization (Micoson XL-2000, Misonix, […], USA) of brains collected from the control rats. Blank rat plasma was prepared by centrifugation (8000 rcf for 3.5 min) of blood collected from control rats. […] The mixtures were incubated at 37 °C with 100 rpm in a water bath for 1 or 3 hr. […] The supernatant was collected for LC/MS/MS analysis.

[4] = tested on: wild type Drosophila; assay: Egg-to-adult viability of wild type flies; format: in vivo; settings: fly food containing 10 or 50 µM peptide, 21.5 °C; 3 independent experiments
Method: Flies were raised at 21.5 °C on cornmeal medium supplemented with dry yeast. Fly lines bearing UAS-DsRed CAG0 and UAS-DsRed CAG100 were kind gifts of Professor Nancy Bonini (University of Pennsylvania, USA). The gmr-GAL4 fly line was obtained from Bloomington Drosophila Stock Center. For pseudopupil assay, third instar larvae were fed with various amount of respective peptides dissolved in 2% sucrose solution for 2 hr and then continued to culture in standard fly food at 21.5 °C[38]. Pseudopupil assay was performed on 12 day-old adult flies as mentioned previously. Images were captured by SPOT Insight CCD camera controlled by the SPOT Advanced software (Diagnostic instruments Inc.). Image processing was performed using the Adobe Photoshop CS software (Adobe). Each experiment was repeated at least 3 times (n = 10 fly heads), and consistent results were obtained. […] Viability from egg-to-adult was calculated as the number of adult flies collected divided by the number of eggs examined. […]
viability of wild type Drosophila from egg to adult. […] Viability from egg to adult was calculated as the number of adult flies collected divided by the number of eggs examined. Data are expressed as mean ± S.E.M. for 3 independent experiments. […]

[5] = tested on: pre-45s rRNA in EGFP CAG78 RNA-expressing HEK293 cells; assay: Real-time PCR of pre-45s rRNA level in cells; format: cell-based; settings: peptide transfected with DeliverX
Method: HEK293 cells were cultured at 37 °C with 5% CO2 in DMEM supplemented with 10% FBS and 1% penicillin-streptomycin. Primary rat cortical neurons were isolated and cultured as previously described. Transient transfection of HEK293 cells was performed using Lipofectamine 2000 (Life Technologies). P3V8 were delivered to HEK293 cells using the DeliverX (DX) Peptide Transfection Kit (Affymetrix) 4 hr after DNA transfection. At least two batches of independently synthesized peptides were used in the experiments.
RNA was extracted from cells or ten 12 day-old adult fly heads by Trizol reagent (Life Technologies), and 1 μg of purified RNA was then used for reverse-transcription using the ImPromII™ Reverse Transcription System (Promega). Random hexamer (Roche) was used as primers in reverse transcription. Taqman gene expression assays were performed on an ABI 7500 Real-time PCR system and data were analyzed as previously described. The following probes were used: pre-45s rRNA (Assay ID: AILJIZM), pre-rRNA (Assay ID: AIMSG5U), Drosophila GAPDH (Assay ID: Dm01841186) and human actin (Assay ID: Hs99999903_m1). Each experiment was repeated at least 3 times.

[6] = male, Sprague-Dawley, rat plasma, 500 ng/mL, 37 °C, incubation 1 hr, LC/MS/MS, mean ± S.E.M. of 5, read-out: Percentage of remained
[7] = male, Sprague-Dawley, rat plasma, 1000 ng/mL, 37 °C, incubation 3 hr, LC/MS/MS, mean ± S.E.M. of 5, read-out: Percentage of remained
[8] = rat plasma, 2000 ng/mL, 37 °C, 100 rpm, incubation 1 hr, LC/MS/MS, mean ± S.E.M. of 5 independent experiments

Compound	toxic effect on control flies [1]	cellular uptake level [2]	cellular uptake level compared to P3V8 ([2]; 500 nM and 1 µM peptide)	remaining at 3 h, 2000 ng/mL ([3]; male, Sprague-Dawley, plasma, read-out: Percentage of remained) [%]	remaining at 1 h, 500 ng/mL [3, 6] [%]	remaining at 3 h, 500 ng/mL ([3]; male, Sprague-Dawley, rat plasma, 500 ng/mL, 37 °C, incubation 3 hr, LC/MS/MS, mean ± S.E.M. of 5, read-out: Percentage of remained) [%]	remaining at 3 h, 1000 ng/mL [3, 7] [%]	remaining at 1 h, 2000 ng/mL ([3]; male, Sprague-Dawley, rat plasma, 2000 ng/mL, 37 °C, 100 rpm, incubation 1 hr, LC/MS/MS, mean ± S.E.M. of 5 independent experiments, read-out: Percentage of remained) [%]	Percentage of remained ([3]; rat plasma, 1000 ng/mL, 37 °C, incubation 1 hr, LC/MS/MS, mean ± S.E.M. of 5) [%]	Percentage of remained [3, 8]	egg-to-adult viability [4]	remaining at 3 h, 2000 ng/mL ([3]; male, Sprague-Dawley, rat plasma, read-out: Percentage of remained) [%]	remaining at 1 h, 1000 ng/mL ([3]; male, Sprague-Dawley, rat plasma, 1000 ng/mL, 37 °C, incubation 1 hr, LC/MS/MS, mean ± S.E.M. of 5, read-out: Percentage of remained) [%]	Percentage of remained ([3]; rat plasma, 2000 ng/mL, 37 °C, 100 rpm, incubation 3 hr, LC/MS/MS, mean ± S.E.M. of 5, LLOQ 12.5 ng/mL P3V8, 100 ng/mL L1P3V8)	restoration of pre-45s rRNA level [5]
CCCCCCCCCCCCCCCC(=O)N[C@@H](CC(=O)O)C(=O)NCC(=O)N[C@@H](CCCCN)C(=O)N[C@@H](CO)C(=O)N[C@@H](CCCCN)C(=O)NCC(=O)N[C@H](C(=O)N[C@@H](C)C(=O)N[C@@H](Cc1ccc(O)cc1)C(=O)N[C@H](C(=O)N[C@@H](CCC(=O)O)C(=O)N[C@@H](Cc1ccccc1)C(=O)N[C@@H](CCCCN)C(N)=O)[C@@H](C)CC)[C@@H](C)CC [L1P3V8] (Palmitoyl-DGKSKGIAYIEFK-NH2)	no cytotoxic effects	low cellular concentration	higher cellular concentration	86.9 ± 5.5	88.1 ± 4.9	73.8 ± 5.7	81.2 ± 1.5	98.8 ± 5	98.7 ± 3.9	nearly all L1P3V8 remained intact	did not affect; also recorded: no obvious alteration	–	–	–	–
Ac-DGKSKGIAYIEFK-NH2 [P3V8]	–	no uptake	–	–	< 2.5	–	< 1.3	–	–	20.7 ± 3.3%	–	< 0.6	8.6 ± 0.5	almost completely degraded	dose-dependent restoration
